In ChEMBL document CHEMBL1157738, “Simocyclinone D8 turns on against Gram-negative bacteria in a clinical setting” (2010):
Values after ≈ are worked out from the molar mass of the structure shown.

Legend:
Klebsiella pneumoniae [1] = assay: Antibacterial activity against Klebsiella pneumoniae isolate 5 expressing qnr B19 gene, GyrA D87G mutant assessed as residual bacterial survival at 50 mg/L after 24 hrs by twofold serial dilution method; type: functional; settings: isolate 5, 24 h
Klebsiella pneumoniae [2] = assay: Antibacterial activity against Klebsiella pneumoniae isolate 91 assessed as residual bacterial survival at 50 mg/L after 24 hrs by twofold serial dilution method; type: functional; settings: isolate 91, 24 h
Escherichia coli [3] = assay: Antibacterial activity against Escherichia coli isolate 50 expressing qnr B19 gene after 24 hrs by twofold serial dilution method; type: functional
Escherichia coli [4] = assay: Antibacterial activity against Escherichia coli isolate 47 expressing qnr B19 gene assessed as residual bacterial survival at 50 mg/L after 24 hrs by twofold serial dilution method; type: functional; settings: isolate 47, 24 h
Escherichia coli [5] = assay: Antibacterial activity against Escherichia coli JM110 after 24 hrs by twofold serial dilution method; type: functional
Escherichia coli [6] = assay: Antibacterial activity against Escherichia coli isolate 95 expressing GyrA S83L mutant assessed as residual bacterial survival at 50 mg/L after 24 hrs by twofold serial dilution method; type: functional; settings: isolate 95, 24 h
Klebsiella pneumoniae [7] = assay: Antibacterial activity against Klebsiella pneumoniae isolate 92 after 24 hrs by twofold serial dilution method; type: functional
Escherichia coli [8] = assay: Antibacterial activity against Escherichia coli isolate 7 assessed as residual bacterial survival at 50 mg/L after 24 hrs by twofold serial dilution method; type: functional; settings: isolate 7, 24 h
Klebsiella pneumoniae [9] = assay: Antibacterial activity against Klebsiella pneumoniae isolate 92 assessed as residual bacterial survival at 50 mg/L after 24 hrs by twofold serial dilution method; type: functional; settings: isolate 92, 24 h
Klebsiella pneumoniae [10] = assay: Antibacterial activity against Klebsiella pneumoniae isolate 110 expressing qnr B19 gene, GyrA D87G mutant assessed as residual bacterial survival at 50 mg/L after 24 hrs by twofold serial dilution method; type: functional; settings: isolate 110, 24 h
Klebsiella pneumoniae [11] = assay: Antibacterial activity against Klebsiella pneumoniae isolate 173 after 24 hrs by twofold serial dilution method; type: functional
Escherichia coli [12] = assay: Antibacterial activity against Escherichia coli Top10 after 24 hrs by twofold serial dilution method; type: functional
Escherichia coli [13] = assay: Antibacterial activity against Escherichia coli JM110 assessed as residual bacterial survival at 50 mg/L after 24 hrs by twofold serial dilution method; type: functional; settings: JM110, 24 h
Escherichia coli [14] = assay: Antibacterial activity against Escherichia coli isolate 24 assessed as drug uptake relative to total amount drug treated; type: functional, organism-based
Klebsiella pneumoniae [15] = assay: Antibacterial activity against Klebsiella pneumoniae isolate 97 expressing qnr B19 gene after 24 hrs by twofold serial dilution method; type: functional
Escherichia coli [16] = assay: Antibacterial activity against Escherichia coli HB101 after 24 hrs by twofold serial dilution method; type: functional
Escherichia coli [17] = assay: Antibacterial activity against Escherichia coli isolate 41 after 24 hrs by twofold serial dilution method; type: functional
Escherichia coli [18] = assay: Antibacterial activity against Escherichia coli isolate 32 after 24 hrs by twofold serial dilution method; type: functional
Escherichia coli [19] = assay: Antibacterial activity against Escherichia coli isolate 50 assessed as drug uptake relative to total amount drug treated; type: functional, organism-based
Escherichia coli [20] = assay: Antibacterial activity against Escherichia coli isolate 24 assessed as residual bacterial survival at 50 mg/L after 24 hrs by twofold serial dilution method; type: functional; settings: isolate 24, 24 h
Escherichia coli [21] = assay: Antibacterial activity against Escherichia coli Top10 assessed as drug uptake relative to total amount drug treated; type: functional, organism-based
Escherichia coli [22] = assay: Antibacterial activity against Escherichia coli Top10 assessed as residual bacterial survival at 50 mg/L after 24 hrs by twofold serial dilution method; type: functional; settings: Top10, 24 h
Escherichia coli [23] = assay: Antibacterial activity against Escherichia coli isolate 13 assessed as residual bacterial survival at 50 mg/L after 24 hrs by twofold serial dilution method; type: functional; settings: isolate 13, 24 h
Klebsiella pneumoniae [24] = assay: Antibacterial activity against Klebsiella pneumoniae isolate 134 after 24 hrs by twofold serial dilution method; type: functional
Escherichia coli [25] = assay: Antibacterial activity against Escherichia coli isolate 191 expressing qnr S1 gene assessed as residual bacterial survival at 50 mg/L after 24 hrs by twofold serial dilution method; type: functional; settings: isolate 191, 24 h
Escherichia coli [26] = assay: Antibacterial activity against Escherichia coli Top10 assessed as drug uptake; type: functional, organism-based
Klebsiella pneumoniae [27] = assay: Antibacterial activity against Klebsiella pneumoniae isolate 91 after 24 hrs by twofold serial dilution method; type: functional
Escherichia coli [28] = assay: Antibacterial activity against Escherichia coli isolate 7 after 24 hrs by twofold serial dilution method; type: functional
Klebsiella pneumoniae [29] = assay: Antibacterial activity against Klebsiella pneumoniae isolate 134 assessed as residual bacterial survival at 50 mg/L after 24 hrs by twofold serial dilution method; type: functional; settings: isolate 134, 24 h
Escherichia coli [30] = assay: Antibacterial activity against Escherichia coli JM109 assessed as residual bacterial survival at 50 mg/L after 24 hrs by twofold serial dilution method; type: functional; settings: JM109, JM 109, 24 h
Klebsiella pneumoniae [31] = assay: Antibacterial activity against Klebsiella pneumoniae isolate 173 assessed as residual bacterial survival at 50 mg/L after 24 hrs by twofold serial dilution method; type: functional; settings: isolate 173, 24 h

Compound: CC(=O)O[C@@H]1[C@@H](C)O[C@@H](c2ccc3c(c2O)[C@@H](O)[C@]24O[C@@]2(C3=O)[C@@]2(O)C(=O)C=C(C)C[C@@]2(O)C[C@@H]4O)C[C@H]1OC(=O)/C=C/C=C/C=C/C=C/C(=O)Nc1c(O)c2ccc(O)c(Cl)c2oc1=O [SIMOCYCLINONE D8]
- survival at 50 µg/mL (Klebsiella pneumoniae [1]): > 90%
- survival at 50 µg/mL (Klebsiella pneumoniae [2]): > 90%
- MIC50 (Escherichia coli [3]): 12 µg/mL (≈ 12.9 µM)
- survival at 50 µg/mL (Escherichia coli [4]): 44%
- MIC50 (Escherichia coli [5]): > 100 µg/mL
- survival at 50 µg/mL (Escherichia coli [6]): > 90%
- MIC50 (Klebsiella pneumoniae [7]): 50 µg/mL (≈ 53.6 µM)
- survival at 50 µg/mL (Escherichia coli [8]): > 90%
- survival at 50 µg/mL (Klebsiella pneumoniae [9]): 77%
- survival at 50 µg/mL (Klebsiella pneumoniae [10]): > 90%
- MIC50 (Klebsiella pneumoniae [11]): 100 µg/mL (≈ 107 µM)
- MIC50 (Escherichia coli [12]): > 100 µg/mL
- survival at 50 µg/mL (Escherichia coli [13]): > 90%
- Drug uptake (Escherichia coli [14]): 7.53%
- MIC50 (Klebsiella pneumoniae [15]): 50 µg/mL (≈ 53.6 µM)
- MIC50 (Escherichia coli [16]): > 100 µg/mL
- MIC50 (Escherichia coli [17]): 0.78 µg/mL (≈ 0.837 µM)
- MIC50 (Escherichia coli [18]): > 100 µg/mL
- Drug uptake (Escherichia coli [19]): 5.87%
- survival at 50 µg/mL (Escherichia coli [20]): 21%
- Drug uptake (Escherichia coli [21]): 2.61%
- survival at 50 µg/mL (Escherichia coli [22]): > 90%
- survival at 50 µg/mL (Escherichia coli [23]): > 90%
- MIC50 (Klebsiella pneumoniae [24]): 25 µg/mL (≈ 26.8 µM)
- survival at 50 µg/mL (Escherichia coli [25]): 56%
- Drug uptake (Escherichia coli [26]): 80 pmol
- MIC50 (Klebsiella pneumoniae [27]): > 100 µg/mL
- MIC50 (Escherichia coli [28]): >100%
- survival at 50 µg/mL (Klebsiella pneumoniae [29]): 51%
- survival at 50 µg/mL (Escherichia coli [30]): > 90%
- survival at 50 µg/mL (Klebsiella pneumoniae [31]): 83%
